Where “and” joins values, the source holds several entries; their conditions need not be identical. Identical values can stand only once.
Columns and labels:
[1] = test system: PA-TU-8988T; experiment: EC50 for viability (resazurin, 96 h); settings: DMEM+GlutaMAX (5% dFBS, 1% P/S)
[2] = test system: SW620 MTHFD2-/-; experiment: cell viability relative to vehicle (resazurin, 96 h); higher = more viable; settings: base medium: RPMI + dialysed FBS
Method: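 SW620 WT or MTHFD2-/- cells were treated for 96 h with a compound dilution series (log10 M) in RPMI with normal or dialysed FBS. Viability was read by resazurin and is given as % of vehicle.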

[3] = test system: SW620; experiment: cell viability relative to lowest-dose well (resazurin, 96 h); higher = more viable; settings: RPMI + 10% FBS
In short: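 Each value gives viability as percent of the lowest-dose well, drawn from independent replicate cultures. Cells (HCT116, 500 cells/well; SW620, 1,000 cells/well) in 50 µl RPMI with 10% FBS and a metabolite supplement were exposed in 384-well plates to compound dilution series for 96 h at 37 °C, 5% CO2. Readout was fluorescence at 595 nm from resorufin formed from resazurin (10 µg ml^−1) over 5 h.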

Nc1nc(N)c(CC(=O)Nc2cnc(C(=O)N[C@@H](CCC(=O)O)C(=O)O)c(F)c2)c(=O)[nH]1 [TH9619]
Settings | EC50 for viability [nM]
[1], metabolite supplement: Thymidine | 29.5

CN(Cc1cnc2nc(N)nc(N)c2n1)c1ccc(C(=O)N[C@@H](CCC(=O)O)C(=O)O)cc1 [methotrexate]
Settings | EC50 for viability [nM] | cell viability [%]
[1], metabolite supplement: Hypoxanthine | 237 | –
[1], metabolite supplement: Sodium Formate | 85.5 | –
[1], metabolite supplement: Thymidine | 50 | –
[2], log10 compound concentration (M): -6, supplement / serum: 50 μM Hypoxanthine | – | 6.45
[2], log10 compound concentration (M): -6, supplement / serum: 50 μM Thymidine | – | 6.68
[2], log10 compound concentration (M): -6, supplement / serum: 50 μM Thymidine + 50 μM Hypoxanthine | – | 111
[2], log10 compound concentration (M): -6, supplement / serum: Hypoxanthine | – | 6.76
[2], log10 compound concentration (M): -6, supplement / serum: Hypoxanthine+Sodium Formate | – | 6.18
[2], log10 compound concentration (M): -6, supplement / serum: Hypoxanthine+Sodium Formate+Thymidine | – | 93.3
[2], log10 compound concentration (M): -6, supplement / serum: No metabolite | – | 7.7
[2], log10 compound concentration (M): -6, supplement / serum: Sodium Formate | – | 7.05
[2], log10 compound concentration (M): -6, supplement / serum: Vehicle | – | 7.38
[2], log10 compound concentration (M): -6.47712, supplement / serum: 50 μM Hypoxanthine | – | 6.99
[2], log10 compound concentration (M): -6.47712, supplement / serum: 50 μM Thymidine | – | 7.63
[2], log10 compound concentration (M): -6.47712, supplement / serum: 50 μM Thymidine + 50 μM Hypoxanthine | – | 115
[2], log10 compound concentration (M): -6.47712, supplement / serum: Hypoxanthine | – | 7.12
[2], log10 compound concentration (M): -6.47712, supplement / serum: Hypoxanthine+Sodium Formate | – | 6.79
[2], log10 compound concentration (M): -6.47712, supplement / serum: Hypoxanthine+Sodium Formate+Thymidine | – | 112
[2], log10 compound concentration (M): -6.47712, supplement / serum: No metabolite | – | 7.99
[2], log10 compound concentration (M): -6.47712, supplement / serum: Sodium Formate | – | 7.19
[2], log10 compound concentration (M): -6.47712, supplement / serum: Vehicle | – | 7.78
[2], log10 compound concentration (M): -6.95424, supplement / serum: 50 μM Hypoxanthine | – | 7.25
[2], log10 compound concentration (M): -6.95424, supplement / serum: 50 μM Thymidine | – | 7.71
[2], log10 compound concentration (M): -6.95424, supplement / serum: 50 μM Thymidine + 50 μM Hypoxanthine | – | 111
[2], log10 compound concentration (M): -6.95424, supplement / serum: Hypoxanthine | – | 7.47
[2], log10 compound concentration (M): -6.95424, supplement / serum: Hypoxanthine+Sodium Formate | – | 7.62
[2], log10 compound concentration (M): -6.95424, supplement / serum: Hypoxanthine+Sodium Formate+Thymidine | – | 107
[2], log10 compound concentration (M): -6.95424, supplement / serum: No metabolite | – | 8.02
[2], log10 compound concentration (M): -6.95424, supplement / serum: Sodium Formate | – | 7.59
[2], log10 compound concentration (M): -6.95424, supplement / serum: Vehicle | – | 7.71
[2], log10 compound concentration (M): -7.43136, supplement / serum: 50 μM Hypoxanthine | – | 14.5
[2], log10 compound concentration (M): -7.43136, supplement / serum: 50 μM Thymidine | – | 7.18
[2], log10 compound concentration (M): -7.43136, supplement / serum: 50 μM Thymidine + 50 μM Hypoxanthine | – | 95.6
[2], log10 compound concentration (M): -7.43136, supplement / serum: Hypoxanthine | – | 11.5
[2], log10 compound concentration (M): -7.43136, supplement / serum: Hypoxanthine+Sodium Formate | – | 11.1
[2], log10 compound concentration (M): -7.43136, supplement / serum: Hypoxanthine+Sodium Formate+Thymidine | – | 98.6
[2], log10 compound concentration (M): -7.43136, supplement / serum: No metabolite | – | 7.722
[2], log10 compound concentration (M): -7.43136, supplement / serum: Sodium Formate | – | 7.53
[2], log10 compound concentration (M): -7.43136, supplement / serum: Vehicle | – | 7.22
[2], log10 compound concentration (M): -7.90849, supplement / serum: 50 μM Hypoxanthine | – | 70.7
[2], log10 compound concentration (M): -7.90849, supplement / serum: 50 μM Thymidine | – | 12.3
[2], log10 compound concentration (M): -7.90849, supplement / serum: 50 μM Thymidine + 50 μM Hypoxanthine | – | 106
[2], log10 compound concentration (M): -7.90849, supplement / serum: Hypoxanthine | – | 54.5
[2], log10 compound concentration (M): -7.90849, supplement / serum: Hypoxanthine+Sodium Formate | – | 55.4
[2], log10 compound concentration (M): -7.90849, supplement / serum: Hypoxanthine+Sodium Formate+Thymidine | – | 102
[2], log10 compound concentration (M): -7.90849, supplement / serum: No metabolite | – | 10.5
[2], log10 compound concentration (M): -7.90849, supplement / serum: Sodium Formate | – | 11.5
[2], log10 compound concentration (M): -7.90849, supplement / serum: Vehicle | – | 8.29
[2], log10 compound concentration (M): -8.38561, supplement / serum: 50 μM Hypoxanthine | – | 76.3
[2], log10 compound concentration (M): -8.38561, supplement / serum: 50 μM Thymidine | – | 14.7
[2], log10 compound concentration (M): -8.38561, supplement / serum: 50 μM Thymidine + 50 μM Hypoxanthine | – | 102
[2], log10 compound concentration (M): -8.38561, supplement / serum: Hypoxanthine | – | 74.7
[2], log10 compound concentration (M): -8.38561, supplement / serum: Hypoxanthine+Sodium Formate | – | 79.4
[2], log10 compound concentration (M): -8.38561, supplement / serum: Hypoxanthine+Sodium Formate+Thymidine | – | 84.7
[2], log10 compound concentration (M): -8.38561, supplement / serum: No metabolite | – | 9.121
[2], log10 compound concentration (M): -8.38561, supplement / serum: Sodium Formate | – | 33.1
[2], log10 compound concentration (M): -8.38561, supplement / serum: Vehicle | – | 15.5
[2], log10 compound concentration (M): -8.86273, supplement / serum: 50 μM Hypoxanthine | – | 92.6
[2], log10 compound concentration (M): -8.86273, supplement / serum: 50 μM Thymidine | – | 66.7
[2], log10 compound concentration (M): -8.86273, supplement / serum: 50 μM Thymidine + 50 μM Hypoxanthine | – | 109
[2], log10 compound concentration (M): -8.86273, supplement / serum: Hypoxanthine | – | 92.5
[2], log10 compound concentration (M): -8.86273, supplement / serum: Hypoxanthine+Sodium Formate | – | 97.5
[2], log10 compound concentration (M): -8.86273, supplement / serum: Hypoxanthine+Sodium Formate+Thymidine | – | 91.4
[2], log10 compound concentration (M): -8.86273, supplement / serum: No metabolite | – | 47.4
[2], log10 compound concentration (M): -8.86273, supplement / serum: Sodium Formate | – | 72.7
[2], log10 compound concentration (M): -8.86273, supplement / serum: Vehicle | – | 45.5
[2], log10 compound concentration (M): -9.33985, supplement / serum: 50 μM Hypoxanthine | – | 100
[2], log10 compound concentration (M): -9.33985, supplement / serum: 50 μM Thymidine | – | 87.7
[2], log10 compound concentration (M): -9.33985, supplement / serum: 50 μM Thymidine + 50 μM Hypoxanthine | – | 102
[2], log10 compound concentration (M): -9.33985, supplement / serum: Hypoxanthine | – | 92.7
[2], log10 compound concentration (M): -9.33985, supplement / serum: Hypoxanthine+Sodium Formate | – | 96.4
[2], log10 compound concentration (M): -9.33985, supplement / serum: Hypoxanthine+Sodium Formate+Thymidine | – | 98.6
[2], log10 compound concentration (M): -9.33985, supplement / serum: No metabolite | – | 82.1
[2], log10 compound concentration (M): -9.33985, supplement / serum: Sodium Formate | – | 101
[2], log10 compound concentration (M): -9.33985, supplement / serum: Vehicle | – | 80.1
[2], log10 compound concentration (M): -9.81697, supplement / serum: 50 μM Hypoxanthine | – | 95.3
[2], log10 compound concentration (M): -9.81697, supplement / serum: 50 μM Thymidine | – | 109.8
[2], log10 compound concentration (M): -9.81697, supplement / serum: 50 μM Thymidine + 50 μM Hypoxanthine | – | 104
[2], log10 compound concentration (M): -9.81697, supplement / serum: Hypoxanthine | – | 102
[2], log10 compound concentration (M): -9.81697, supplement / serum: Hypoxanthine+Sodium Formate | – | 100
[2], log10 compound concentration (M): -9.81697, supplement / serum: Hypoxanthine+Sodium Formate+Thymidine | – | 98.5
[2], log10 compound concentration (M): -9.81697, supplement / serum: No metabolite | – | 97.9
[2], log10 compound concentration (M): -9.81697, supplement / serum: Sodium Formate | – | 97.9
[2], log10 compound concentration (M): -9.81697, supplement / serum: Vehicle | – | 94.8
[2], log10 compound concentration (M): -10.2941, supplement / serum: 50 μM Hypoxanthine | – | 105
[2], log10 compound concentration (M): -10.2941, supplement / serum: 50 μM Thymidine | – | 93.5
[2], log10 compound concentration (M): -10.2941, supplement / serum: 50 μM Thymidine + 50 μM Hypoxanthine | – | 103
[2], log10 compound concentration (M): -10.2941, supplement / serum: Hypoxanthine | – | 91
[2], log10 compound concentration (M): -10.2941, supplement / serum: Hypoxanthine+Sodium Formate | – | 96.2
[2], log10 compound concentration (M): -10.2941, supplement / serum: Hypoxanthine+Sodium Formate+Thymidine | – | 100
[2], log10 compound concentration (M): -10.2941, supplement / serum: No metabolite | – | 94.6
[2], log10 compound concentration (M): -10.2941, supplement / serum: Sodium Formate | – | 95.9
[2], log10 compound concentration (M): -10.2941, supplement / serum: Vehicle | – | 87.6
[2], log10 compound concentration (M): -10.7712, supplement / serum: 50 μM Hypoxanthine | – | 88.2
[2], log10 compound concentration (M): -10.7712, supplement / serum: 50 μM Thymidine | – | 96.2
[2], log10 compound concentration (M): -10.7712, supplement / serum: 50 μM Thymidine + 50 μM Hypoxanthine | – | 110
[2], log10 compound concentration (M): -10.7712, supplement / serum: Hypoxanthine | – | 98.1
[2], log10 compound concentration (M): -10.7712, supplement / serum: Hypoxanthine+Sodium Formate | – | 92.28
[2], log10 compound concentration (M): -10.7712, supplement / serum: Hypoxanthine+Sodium Formate+Thymidine | – | 103
[2], log10 compound concentration (M): -10.7712, supplement / serum: No metabolite | – | 111
[2], log10 compound concentration (M): -10.7712, supplement / serum: Sodium Formate | – | 95
[2], log10 compound concentration (M): -10.7712, supplement / serum: Vehicle | – | 95.6

cell viability, [3]
Settings | 0.001 µM | 0.00278 µM | 0.00774 µM | 0.0215 µM | 0.0599 µM | 0.167 µM | 0.464 µM | 1.29 µM | 3.59 µM | 10 µM
metabolite supplement: 1uM folinic acid | 101% | 101% | 100% | 100% | 96.1% | 85.3% | 59.2% | 51.8% | 48.7% | 31.6%
metabolite supplement: 50uM thymidine | 95.8% | 96.1% | 73.1% | 55% | 30.1% | 26.8% and 27.8% | 27.5% | 26% | 26.7% | 26.6%
metabolite supplement: 50uM thymidine + 1uM folinic acid | 102% | 102% | 101% | 103% | 102% | 85.4% | 68.2% | 49.2% | 43.4% | 39.9%
metabolite supplement: 50uM thymidine + 250uM folic acid | – | – | 98.6% | 94.3% | 79.3% | 45.2% | 37.4% | 37.2% | 35.5% | 35.5%
metabolite supplement: 250uM folic acid | – | – | 98.4% | 89.1% | 78% | 47.8% | 29.7% | 27.5% | 27.3% | 27.3%
metabolite supplement: vehicle | 96.5% | 93.7% | 70.1% | 39.2% | 29.9% and 27.9% | 32% and 27.2% | 27.4% | 26.9% | 25.7% | 26%
